What all share (format): cell-based
In assay [1] the test system is Staphylococcus aureus ATCC 29213. The assay can be described thus: MIC, NCCLS M7-A6 broth microdilution, cation-adjusted Mueller Hinton broth (Table 9, no superscript). The conditions noted are these: ATCC 29213. The essentials: (§1)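 MIC determined by microdilution in cation-adjusted Mueller Hinton broth after overnight growth at 37° C, defined as the lowest peptide level lacking turbidity.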
In general terms: In broth dilution the organism is exposed to a series of concentrations in liquid medium.

Assay [2] deals with Escherichia coli ATCC 25922. Nature of the assay: MIC, NCCLS M7-A6 broth microdilution (Table 9, no superscript). The conditions noted are these: ATCC 25922. The essentials:
as §1

Assay [3] relates to Pseudomonas aeruginosa ATCC 27853. Described as above. The conditions noted are these: ATCC 27853. The essentials:
as §1

The test system of a further assay is Salmonella dublin (Lane). Described as above. The essentials:
as §1

Assay [4] has as its system Staphylococcus epidermidis ATCC 12228. Described as above. The conditions noted are these: ATCC 12228. The essentials:
as §1

Assay [5] has as its system Propionibacterium acnes ATCC 6919. The assay can be described thus: MIC, agar dilution method NCCLS M11-A6, Brucella agar, anaerobic (Table 9, superscript c). Particulars: ATCC 6919. The essentials:
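Agar dilution per NCCLS M11-A6 on Brucella agar; final inoculum 1.5×10^8 CFU/milliliter applied to plates, incubated 48-96 hours at 37° C. under anaerobic (GasPak) conditions. MIC = lowest peptide concentration with no colony growth.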
In general terms: In agar dilution, organisms are placed on agar that contains the substance at set levels.

For assay [6], the system named is Candida albicans ATCC 18804. The assay can be described thus: MIC in yeasts, NCCLS M27-A2 broth microdilution, RPMI 1640 (Table 9, letter e). The conditions noted are these: ATCC 18804. The essentials:
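Broth microdilution per NCCLS M27-A2 in RPMI 1640 with glutamine and phenol red, final inoculum 0.5×10^3–2.5×10^3 CFU/milliliter. Incubated 24 to 48 hours at 37° C; MIC is the lowest peptide concentration with no visible growth.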

Values after ≈ are worked out from the molar mass of the structure shown. Non-standard residues stand in square brackets, D forms with d. Residues, ends and D or L forms follow the SMILES beside them. *: point of attachment. Lauroyl = CCCCCCCCCCCC(=O)*

`CCCCCCCCCCCC(=O)N[C@H](CCCNC(=N)N)C(=O)N[C@H](CO)C(=O)N[C@H](CCCNC(=N)N)C(=O)N[C@H](CC(C)C)C(=O)N[C@H](CCCNC(=N)N)C(=O)N[C@H](CC(=O)O)C(=O)N[C@H](CC(C)C)C(=O)N[C@H](CC(C)C)C(=O)N[C@H](CCCNC(=N)N)C(=O)N[C@H](CC(N)=O)C(=O)N[C@H](CC(C)C)C(=O)N[C@H](C)C(=O)N[C@H](CCCNC(=N)N)C(N)=O` [Peptide 132, Lauryl-rsrlrdllrnlar-NH2] (Lauroyl-[dR][dS][dR][dL][dR][dD][dL][dL][dR][dN][dL][dA][dR]-NH2): the “MIC S. aureus” value in assay [1] is 4 µg/mL (≈ 2.2 µM). Further, the “MIC E. coli” value in assay [2] came out at 4 µg/mL (≈ 2.2 µM). Further, the “MIC P. aeruginosa” value in assay [3] came to 32 µg/mL (≈ 17.6 µM). The “MIC S. dublin” value against Salmonella dublin (Lane) was 4 µg/mL (≈ 2.2 µM). In assay [4], the “MIC S. epidermidis” value was found to be 2 µg/mL (≈ 1.1 µM). Moreover, the “MIC P. acnes” value in assay [5] was 8c ug/mL. Further, in assay [6], the “MIC C. albicans” value is 4e ug/mL.

As for `CCCCCCCCCCCC(=O)N[C@H](CCCNC(=N)N)C(=O)N[C@H](CO)C(=O)N[C@H](CCCNC(=N)N)C(=O)N[C@H](Cc1c[nH]c2ccccc12)C(=O)N[C@H](CCCNC(=N)N)C(=O)N[C@H](CC(=O)O)C(=O)N[C@H](CC(C)C)C(=O)N[C@H](CC(C)C)C(=O)N[C@H](CCCNC(=N)N)C(=O)N[C@H](CC(N)=O)C(=O)N[C@H](CC(C)C)C(=O)N[C@H](CCSC)C(=O)N[C@H](CCCNC(=N)N)C(N)=O` [Peptide 133, Lauryl-rsrwrdllrnlmr-NH2] (Lauroyl-[dR][dS][dR][dW][dR][dD][dL][dL][dR][dN][dL][dM][dR]-NH2), in assay [1], the “MIC S. aureus” value worked out at 4 µg/mL (≈ 2.05 µM). The “MIC E. coli” value in assay [2] was 16 µg/mL (≈ 8.19 µM). Further, the “MIC P. aeruginosa” value in assay [3] worked out at 32 µg/mL (≈ 16.4 µM). Also, in the assay on Salmonella dublin (Lane), the “MIC S. dublin” value was 8 µg/mL (≈ 4.1 µM). Also, in assay [4], the “MIC S. epidermidis” value came to 2 µg/mL (≈ 1.02 µM). The “MIC P. acnes” value in assay [5] stood at 2c ug/mL. The “MIC C. albicans” value in assay [6] came to 2e ug/mL.

As to `CCCCCCCCCCCC(=O)N[C@@H](CCCNC(=N)N)C(=O)N[C@@H](CO)C(=O)N[C@@H](CCCNC(=N)N)C(=O)N[C@@H](Cc1c[nH]c2ccccc12)C(=O)N[C@@H](CCCNC(=N)N)C(=O)N[C@@H](CC(=O)O)C(=O)N[C@H](C(=O)N[C@@H](CC(C)C)C(=O)N[C@@H](CCCNC(=N)N)C(=O)N[C@@H](CC(N)=O)C(=O)N[C@@H](Cc1ccccc1)C(=O)N[C@@H](CCSC)C(=O)N[C@@H](CCCNC(=N)N)C(N)=O)C(C)C` [Peptide 134, Lauryl-RSRWRDVLRNFMR-NH2] (Lauroyl-RSRWRDVLRNFMR-NH2), the “MIC S. aureus” value in assay [1] was determined as 4 µg/mL (≈ 2.03 µM). In assay [2], the “MIC E. coli” value came to 4 µg/mL (≈ 2.03 µM). Also, the “MIC P. aeruginosa” value in assay [3] worked out at 32 µg/mL (≈ 16.2 µM). Moreover, the “MIC S. dublin” value against Salmonella dublin (Lane) was found to be 2 µg/mL (≈ 1.01 µM). Also, the “MIC S. epidermidis” value in assay [4] was 1 µg/mL (≈ 0.507 µM). The “MIC P. acnes” value in assay [5] is reported as 2c ug/mL. The “MIC C. albicans” value in assay [6] was determined as 1e ug/mL.

Turning to `CCCCCCCCCCCC(=O)N[C@@H](CCCNC(=N)N)C(=O)N[C@@H](CO)C(=O)N[C@@H](CCCNC(=N)N)C(=O)N[C@@H](Cc1c[nH]c2ccccc12)C(=O)N[C@@H](CCCNC(=N)N)C(=O)N[C@@H](CC(=O)O)C(=O)N[C@H](C(=O)N[C@@H](CC(C)C)C(=O)N[C@@H](CCCNC(=N)N)C(=O)N[C@@H](CC(N)=O)C(=O)N[C@@H](Cc1ccccc1)C(=O)N[C@@H](CC(C)C)C(=O)N[C@@H](CCCNC(=N)N)C(N)=O)C(C)C` [Peptide 136, Lauryl-RSRWRDVLRNFLR-NH2] (Lauroyl-RSRWRDVLRNFLR-NH2), in assay [1], the “MIC S. aureus” value worked out at 4 µg/mL (≈ 2.05 µM). Further, the “MIC E. coli” value in assay [2] is 8 µg/mL (≈ 4.09 µM). In assay [3], the “MIC P. aeruginosa” value came out at 32 µg/mL (≈ 16.4 µM). Further, the “MIC S. dublin” value in the assay on Salmonella dublin (Lane) worked out at 8 µg/mL (≈ 4.09 µM). In addition, in assay [4], the “MIC S. epidermidis” value was 1 µg/mL (≈ 0.511 µM). Also, in assay [5], the “MIC P. acnes” value worked out at 8c ug/mL. In assay [6], the “MIC C. albicans” value amounted to 1e ug/mL.
